“And” between values parts separate entries of the source, which are not always exact repeats. Equal entries are not always repeated. Toxic doses and inconclusive results are not listed.
System: AKR/Lw mice, AKR lymphoma ip, median survival T/C
Experiment: NCI In Vivo Anticancer Drug Screen. Data for tumor model Lymphoma AKR (Transplanted) (intraperitoneal) in AKR/Lw mice
Conditions: endpoint: median survival time, higher = longer survival
Procedure: The antitumor activity of compounds was measured in mice bearing transplantable tumors. Survival or tumor size were measured and the results are expressed as the measurement made in the treated group (T) divided by the measurement made in the vehicle treated control group (C). The tumor model used in this assay is Lymphoma AKR (Transplanted) (intraperitoneal) in AKR/Lw mice

[1] = dose: 100.0 mg/kg/injection, schedule: Q01DX001 (ip), vehicle: saline
[2] = dose: 200.0 mg/kg/injection, schedule: Q01DX001 (ip), vehicle: saline
[3] = dose: 400.0 mg/kg/injection, schedule: Q01DX001 (ip), vehicle: saline
[4] = dose: 100.0 mg/kg/injection, schedule: Q01DX001 (ip), vehicle: Klucel (hydroxypropylcellulose) (HPC)
[5] = dose: 200.0 mg/kg/injection, schedule: Q01DX001 (ip), vehicle: Klucel (hydroxypropylcellulose) (HPC)
[6] = dose: 400.0 mg/kg/injection, schedule: Q01DX001 (ip), vehicle: Klucel (hydroxypropylcellulose) (HPC)
[7] = dose: 100.0 mg/kg/injection, schedule: Q04DX003 (ip), vehicle: Klucel (hydroxypropylcellulose) (HPC)
[8] = dose: 200.0 mg/kg/injection, schedule: Q04DX003 (ip), vehicle: Klucel (hydroxypropylcellulose) (HPC)
[9] = dose: 400.0 mg/kg/injection, schedule: Q04DX003 (ip), vehicle: Klucel (hydroxypropylcellulose) (HPC)

## S=c1nc(-c2ccccc2)c(-c2ccccc2)n[nH]1
dose: 100.0 mg/kg/injection, schedule: Q01DX001 (ip), vehicle: saline with Tween-80
  T/C: 106 % of control
dose: 200.0 mg/kg/injection, schedule: Q01DX001 (ip), vehicle: saline with Tween-80
  T/C: 103 % of control
dose: 400.0 mg/kg/injection, schedule: Q01DX001 (ip), vehicle: saline with Tween-80
  T/C: 112 % of control

## CC[N+]1=NC2CCCC(C2)C1 (stereo unspecified)
[1]
  T/C: 101 % of control
[2]
  T/C: 106 % of control

## COc1cc2ccc(CC(=O)NCc3ccccc3)cc2cc1OC
[1]
  T/C: 117 % of control
[2]
  T/C: 107 % of control
dose: 200.0 mg/kg/injection, schedule: Q04DX003 (ip), vehicle: other
  T/C: 95 % of control
[3]
  T/C: 103 % of control

## Cc1ccc(N=C(c2ccc([N+](=O)[O-])cc2)c2ccc([N+](=O)[O-])cc2)cc1
dose: 50.0 mg/kg/injection, schedule: Q01DX001 (ip), vehicle: Klucel (hydroxypropylcellulose) (HPC)
  T/C: 105 % of control
[4]
  T/C: 96 % of control
[5]
  T/C: 93 % of control and 100 % of control
[6]
  T/C: 100 % of control

## CC(C)(CCCl)NCc1ccccc1
[1]
  T/C: 102 % of control

## C1=CC2(OCCO2)C2CC=CC3(OCCO3)C2C1 (stereo unspecified)
[1]
  T/C: 104 % of control
[2]
  T/C: 97 % of control
[3]
  T/C: 95 % of control

## COc1ccccc1Oc1ccc(N=Cc2ccc(C)cc2)cc1
[4]
  T/C: 93 % of control
[7]
  T/C: 93 % of control
[5]
  T/C: 100 % of control
[8]
  T/C: 97 % of control
[6]
  T/C: 93 % of control
[9]
  T/C: 102 % of control

## O=C[C@@H](CO)O[C@H](C=O)n1cnc2c(=O)[nH]cnc21
dose: 3.0 mg/kg/injection, schedule: Q01DX009 (ip), vehicle: saline
  T/C: 104 % of control and 123 % of control
dose: 6.0 mg/kg/injection, schedule: Q01DX009 (ip), vehicle: saline
  T/C: 102 % of control and 108 % of control and 121 % of control
dose: 6.2 mg/kg/injection, schedule: Q04DX003 (ip), vehicle: saline
  T/C: 102 % of control
dose: 6.25 mg/kg/injection, schedule: Q01DX009 (ip), vehicle: saline
  T/C: 112 % of control
dose: 12.0 mg/kg/injection, schedule: Q01DX009 (ip), vehicle: saline
  T/C: 100 % of control and 112 % of control
dose: 12.5 mg/kg/injection, schedule: Q01DX009 (ip), vehicle: saline
  T/C: 94 % of control and 106 % of control
dose: 12.5 mg/kg/injection, schedule: Q04DX003 (ip), vehicle: saline
  T/C: 100 % of control and 105 % of control
dose: 24.0 mg/kg/injection, schedule: Q01DX009 (ip), vehicle: saline
  T/C: 112 % of control
dose: 25.0 mg/kg/injection, schedule: Q01DX001 (ip), vehicle: saline
  T/C: 89 % of control and 105 % of control
dose: 25.0 mg/kg/injection, schedule: Q04DX003 (ip), vehicle: saline
  T/C: 87 % of control and 113 % of control
dose: 50.0 mg/kg/injection, schedule: Q01DX001 (ip), vehicle: saline
  T/C: 89 % of control
dose: 60.0 mg/kg/injection, schedule: Q04DX003 (ip), vehicle: water
  T/C: 114 % of control
dose: 75.0 mg/kg/injection, schedule: Q01DX009 (ip), vehicle: saline
  T/C: 103 % of control and 238 % of control
[1]
  T/C: 92 % of control and 97 % of control (2×)
dose: 240.02 mg/kg/injection, schedule: Q04DX003 (ip), vehicle: water
  T/C: 222 % of control
dose: 500.0 mg/kg/injection, schedule: Q01DX001 (ip), vehicle: saline
  T/C: 120 % of control

## COC(=O)C1(C)CSCCC1=O (stereo unspecified)
[4]
  T/C: 91 % of control
[5]
  T/C: 105 % of control
[6]
  T/C: 96 % of control

## COc1cc2c(cc1OC)C(CNC(=O)/C=C/c1ccccc1)C2 (stereo unspecified)
[4]
  T/C: 102 % of control
[7]
  T/C: 96 % of control
[5]
  T/C: 94 % of control
[8]
  T/C: 100 % of control
[6]
  T/C: 89 % of control
[9]
  T/C: 100 % of control

## NCOC(=O)Cc1ccc(Br)cc1
[4]
  T/C: 106 % of control
[5]
  T/C: 102 % of control
[6]
  T/C: 106 % of control

From PubChem BioAssay AID190 (DTP/NCI, 2004)
